Experiments:
electrocardiogram = assay: Effect on the electrocardiogram; assay type: in vivo; details: amantadine: 5 mg/kg injected, dog
[1] = test system: cholinergic effects of tremorine; assay: Anti-tremorine test in vivo; parameters: species or system mice (male, OF1 strain)
Description: When injected into mice, tremorine produces peripheral effects i.e. weeping, sweating, salivation and diarrhoea and central effects i.e. tremor and akinesia. Such effects are due to an increase in the amount of intracerebral acetylcholine and serotonine.
[…] Thirty minutes later a dose of 10 mg/kg of tremorine was injected by intraperitoneal route and, at different times after this injection, note was taken of the cholinergic effects on each animal in accordance with the following scale:

[2] = test system: arterial pressure and nictitating membrane (norepinephrine); assay: Influence on peripheral noradrenergic phenomena (norepinephrine, anaesthetized cat); details: cat, i.v.
[3] = SPERBER et al., J. Amer. Chem. Soc., 71, 3352 (1949); cited from earlier work
[4] = SPERBER et al., J. Amer. Chem. Soc., 71, 3352 (1949); cited from earlier work; remark: listed apart in the source
in vivo = details: mouse, po
[5] = test system: neuroleptic-induced catatonia; assay: Inhibition of neuroleptic (prochlorperazine)-induced catatonia (preventive); assay type: in vivo, rat (male, OFA strain)
Description: The blocking of dopaminergic receptors by neuroleptics in the extra-pyramidal system induces catatonia in the rat. Catatonia is differentiated from sedative properties by means of the test used hereabove for reserpine-induced catatonia. The same system of scoring was also employed in the present case.
An oral dose of the compound to be studied in aqueous solution was administered to batches of 10 male rats of the OFA strain weighing about 150 to 200 g.
Three hours after the injection of this latter compound, catatonia was measured. An identical trial was also carried out with control animals which received prochlorperazine but none of the compounds under study.
The scoring system used was that given hereabove for Table I.

[6] = test system: reserpine-induced catatonia; assay: Inhibition of reserpine-induced catatonia (preventive, oral compound 30 min before reserpine); assay type: in vivo, rat (male, OFA strain); details: for index of reserpine-induced catatonia (numerator of ratio): 0.031 m mol/kg oral, hydrochloride form
Description: After sufficient doses of reserpine have been administered to the rat, a series of symptoms occur, more particularly ptosis, catatonia and a drop in central temperature. These symptoms are caused by the depletion of the intragranular reserve pool of biogenetic amines at the synaptic terminals.
An oral dose of the compound to be studied in aqueous solution was administered to batches of 10 male rats of the OFA strain weighing about 150 to 200 g. Thirty minutes later a dose of 5 mg/kg of reserpine was given by intraperitoneal route. Three hours after the injection of reserpine, the animals were suspended by the four paws to a horizontally stretched wire fixed at 15 cm from the ground. The catatonia animals were those which maintained the position so given for at least 30 seconds. […] The maximum score was therefore 10 per batch. An identical trial was undertaken with control animals which received reserpine but none of the compounds being studied.

monoamine oxidase = assay: Inhibitory effect on monoamine oxidase
Tremor-inducing action = details: 0.031 m mol/kg oral, 30 min, hydrochloride form; for number of animals presenting tremors (denominator of ratio): batches of 10 rats

Compound: NC12CC3CC(CC(C3)C1)C2 [Amantadine, 1-amino-adamantane, reference compound]
- effect on the electrocardiogram (in words) (electrocardiogram): provokes cardiac arrhythmia due to ventricular extrasystoles
- antitremorine properties (in words) ([1]; 5 mg/kg Compound 1, 40 mg/kg amantadine): devoid of antitremorine properties
- central cholinergic effects (normal and provoked tremor) ([1]; 40 mg/kg oral, identical to the peripheral score of 4): Identical results
- effect on the nictitating membrane (in words) [2]: stimulates the contractile reactions of the nictitating membrane but does not potentiate the effects of the electric stimulation
- potentiation of norepinephrine / peripheral adrenergic effects (in words) [2]: potentiates exogenous norepinephrine from 1 mg/kg
- potentiation of norepinephrine / peripheral adrenergic effects (in words) ([2]; listed as amantadine): potentiates the peripheral adrenergic effects

Compound: CCCCC(N)(CCCC)CCCC [Compound 12, 1,1-Di-n-butyl-n-pentylamine]
- toxicity (in words) [3]: more toxic than the corresponding trialkylethylamines
- spasmolytic activity (in words) [4]: less spasmolytic
- selectivity ratio (in vivo): 25

Compound: CCCC(CCC)(CCC)NC [Compound 27, N-Methyl-1,1-di-n-propyl-n-butylamine]
- Inhibition of the neuroleptic-induced catatonia ([5]; 6 mg/kg oral): 3 (represents 70 to 80% inhibition of catatonia in comparison with the controls)
- Inhibition of reserpine-induced catatonia ([6]; 6 mg/kg oral): 4 (represents 100% inhibition of catatonia in comparison with the controls)
- index of reserpine-induced catatonia (numerator of ratio) [6]: 4 (represents 100% inhibition of catatonia in comparison with the controls)
- inhibitory effects on the monoamine oxidase (in words) (monoamine oxidase): practically devoid of inhibitory effects
- number of animals presenting tremors (denominator of ratio) (Tremor-inducing action): 4
- ratio of index of reserpine-induced catatonia inhibition to number of animals presenting tremors (Tremor-inducing action): 1
- selectivity ratio (in vivo): 16.5

Compound: CCCC(CCC)(NC)C(C)C [Compound 30, N-Methyl-1-n-propyl-1-isopropyl-n-butylamine]
- Inhibition of the neuroleptic-induced catatonia ([5]; 6 mg/kg oral): 3 (represents 70 to 80% inhibition of catatonia in comparison with the controls)
- Inhibition of reserpine-induced catatonia ([6]; 6 mg/kg oral): 4 (represents 100% inhibition of catatonia in comparison with the controls)
- index of reserpine-induced catatonia (numerator of ratio) [6]: 4 (represents 100% inhibition of catatonia in comparison with the controls)
- number of animals presenting tremors (denominator of ratio) (Tremor-inducing action): 3
- ratio of index of reserpine-induced catatonia inhibition to number of animals presenting tremors (Tremor-inducing action): 1.33
- selectivity ratio (in vivo): > 25

Compound: C=CCC(CCC)(CCC)NC [Compound 32, N-Methyl-1-n-propyl-1-allyl-n-butylamine]
- Inhibition of the neuroleptic-induced catatonia ([5]; 5 mg/kg oral): 2 (represents 50% inhibition of catatonia in comparison with the controls)
- Inhibition of reserpine-induced catatonia ([6]; 5 mg/kg oral): 2 (represents 50% inhibition of catatonia in comparison with the controls)
- index of reserpine-induced catatonia (numerator of ratio) [6]: 3 (represents 70 to 80% inhibition of catatonia in comparison with the controls)
- number of animals presenting tremors (denominator of ratio) (Tremor-inducing action): 0
- ratio of index of reserpine-induced catatonia inhibition to number of animals presenting tremors (Tremor-inducing action): 3/0

Compound: C#CCNC(CCC)(CCC)CCC [Compound 36, N-Propargyl-1,1-di-n-propyl-n-butylamine]
- Inhibition of the neuroleptic-induced catatonia ([5]; 6 mg/kg oral): 4 (represents 100% inhibition of catatonia in comparison with the controls)
- Inhibition of reserpine-induced catatonia ([6]; 6 mg/kg oral): 1 (represents 20 to 30% inhibition of catatonia in comparison with the controls)
- index of reserpine-induced catatonia (numerator of ratio) [6]: 3 (represents 70 to 80% inhibition of catatonia in comparison with the controls)
- number of animals presenting tremors (denominator of ratio) (Tremor-inducing action): 5
- ratio of index of reserpine-induced catatonia inhibition to number of animals presenting tremors (Tremor-inducing action): 0.60
- selectivity ratio (in vivo): > 25

Compound: CCCC(CCC)(CCC)NCCO [Compound 43, N-(2-Hydroxyethyl)-1,1-di-n-propyl-n-butylamine]
- Inhibition of the neuroleptic-induced catatonia ([5]; 6.5 mg/kg oral): 1 (represents 20 to 30% inhibition of catatonia in comparison with the controls)
- Inhibition of reserpine-induced catatonia ([6]; 13 mg/kg oral): 3 (represents 70 to 80% inhibition of catatonia in comparison with the controls)
- selectivity ratio (in vivo): 23

Compound: CCCC(CCC)(CCC)N1CCOCC1 [Compound 46, N,N-(3-Oxapentamethylene)-1,1-di-n-propyl-n-butylamine]
- Inhibition of the neuroleptic-induced catatonia ([5]; 8 mg/kg oral): 2 (represents 50% inhibition of catatonia in comparison with the controls)
- Inhibition of reserpine-induced catatonia ([6]; 8 mg/kg oral): 1 (represents 20 to 30% inhibition of catatonia in comparison with the controls)
- selectivity ratio (in vivo): 31
